Read-outs that look alike come from different tables or passages of the source.
Target: T1, F508delCFTR (Homo sapiens, UniProt P13569, DEL508-508)
T1 construct: expressed in transfected cells; host or cells: CFBE41o- (human lung derived epithelial cell line), doxycycline-inducible expression
Test: Cell Surface Expression-Horse Radish Peroxidase (CSE-HRP) assay
Format: cell-based
Settings: CFBE41o-F508delCFTR-HRP cells; for Maximum % activity (with co-corrector): with co-corrector (2 μM); for Maximum % activity (with co-corrector) / Maximum % activity (without co-corrector): normalized to on-plate positive control, highest concentration 20 μM
Protocol: Cell Surface Expression-Horse Radish Peroxidase (CSE-HRP) Assay
A cellular assay for measuring the F508delCFTR cell surface expression after correction with test compounds either without or with a co-corrector (2 μM of 3-[(2R,4R)-4-({[1-(2,2-difluoro-1,3-benzodioxol-5-yl)cyclopropyl]carbonyl}amino)-7-methoxy-3,4-dihydro-2H-chromen-2-yl]benzoic acid), was developed in human lung derived epithelial cell line (CFBE41o-) (Veit G et al, (2012) Mol Biol Cell. 23(21): 4188-4202). The development was achieved by expressing the F508delCFTR mutation along with a horseradish peroxidase (HRP) in the fourth exofacial loop, and then measuring the HRP activity using luminescence readout from these cells, CFBE41o-F508delCFTR-HRP, that were incubated overnight with the test corrector compounds, either without or with the co-corrector. For this primary assay, the CFBE41o-F508delCFTR-HRP cells were plated in 384-well plates (Greiner Bio-one; Cat 781080) at 4,000 cells/well along with 0.5 μg/mL doxycycline to induce the F508delCFTR-HRP expression and further incubated at 37° C., 5% CO2 for 72 hours. The test compounds were then added either without or with a co-corrector at the required concentrations and further incubated for 18-24 hours at 33° C. The highest concentration tested was 20 μM with an 8-point concentration response curve using a 3-fold dilution in both the test compound without or with the co-corrector. Three replicate plates were run to determine one EC50. All plates contained negative controls (dimethyl sulfoxide, DMSO) and positive control (2 μM of 3-[(2R,4R)-4-({[1-(2,2-difluoro-1,3-benzodioxol-5-yl)cyclopropyl]carbonyl}amino)-7-methoxy-3,4-dihydro-2H-chromen-2-yl]benzoic acid) as well as on-plate concentration response of the positive control. Post incubation, the plates were washed 5× times with Dulbecco's phosphate buffered saline (DPBS), followed by the addition of the HRP substrate, luminol (50 μL), and measuring the HRP activity using luminescence readout on EnVision® Multilabel Plate Reader (Perkin Elmer; product number 2104-0010). The raw counts from the experiment were analyzed using Accelrys® Assay Explorer v3.3.
Z′ greater than 0.5 was used as passing quality control criteria for the plates.
The Z′ is defined as: 1−[3*SDPositive Control+3*SDNegative Control/Absolute(MeanPositive Control−MeanNegative Control)] wherein “SD” is standard deviation.
The % activity measured at each of the 8 test concentrations of the test compound added either without or with a co-corrector (2 μM of 3-[(2R,4R)-4-({[1-(2,2-difluoro-1,3-benzodioxol-5-yl)cyclopropyl]carbonyl}amino)-7-methoxy-3,4-dihydro-2H-chromen-2-yl]benzoic acid) was normalized to the on-plate positive control using the following formulae: % activity(Test compound without co-corrector)=[(test compound without co-corrector response−DMSO response)/(positive control response−DMSO response)]*100 % activity(Test compound with co-corrector)=[(test compound with co-corrector response−DMSO response)/(positive control response−DMSO response)]*100
The maximum % activity achieved for the test compound either without or with a co-corrector at any tested concentration is presented in Table 1 along with the respective EC50's calculated using the following general sigmoidal curve with variable Hill slope equation (described as Model 42 in the Accelrys® Assay Explorer v3.3 software): y=(a−d)/(1+(x/c)^b)+d
General sigmoidal curve with concentration, response, top, bottom, EC50 and Hill slope. This model describes a sigmoidal curve with an adjustable baseline, a. The equation can be used to fit curves where response is either increasing or decreasing with respect to the independent variable, “x”. • “x” is a concentration of drug under test. • “y” is the response. • “a” is the maximum response, and “d” is the minimum response • “c” is the inflection point (EC50) for the curve. That is, “y” is halfway between the lower and upper asymptotes when x=c. “b” is the slope-factor or Hill coefficient. […]

[1] = test compound without co-corrector, 18-24 hours at 33° C., read-out: EC50 (without co-corrector)
[2] = with co-corrector (2 μM of 3-[(2R,4R)-4-({[1-(2,2-difluoro-1,3-benzodioxol-5-yl)cyclopropyl]carbonyl}amino)-7-methoxy-3,4-dihydro-2H-chromen-2-yl]benzoic acid), read-out: EC50 (with co-corrector)

T1 sequence (P13569 with tags, fused parts or gaps DEL508-508): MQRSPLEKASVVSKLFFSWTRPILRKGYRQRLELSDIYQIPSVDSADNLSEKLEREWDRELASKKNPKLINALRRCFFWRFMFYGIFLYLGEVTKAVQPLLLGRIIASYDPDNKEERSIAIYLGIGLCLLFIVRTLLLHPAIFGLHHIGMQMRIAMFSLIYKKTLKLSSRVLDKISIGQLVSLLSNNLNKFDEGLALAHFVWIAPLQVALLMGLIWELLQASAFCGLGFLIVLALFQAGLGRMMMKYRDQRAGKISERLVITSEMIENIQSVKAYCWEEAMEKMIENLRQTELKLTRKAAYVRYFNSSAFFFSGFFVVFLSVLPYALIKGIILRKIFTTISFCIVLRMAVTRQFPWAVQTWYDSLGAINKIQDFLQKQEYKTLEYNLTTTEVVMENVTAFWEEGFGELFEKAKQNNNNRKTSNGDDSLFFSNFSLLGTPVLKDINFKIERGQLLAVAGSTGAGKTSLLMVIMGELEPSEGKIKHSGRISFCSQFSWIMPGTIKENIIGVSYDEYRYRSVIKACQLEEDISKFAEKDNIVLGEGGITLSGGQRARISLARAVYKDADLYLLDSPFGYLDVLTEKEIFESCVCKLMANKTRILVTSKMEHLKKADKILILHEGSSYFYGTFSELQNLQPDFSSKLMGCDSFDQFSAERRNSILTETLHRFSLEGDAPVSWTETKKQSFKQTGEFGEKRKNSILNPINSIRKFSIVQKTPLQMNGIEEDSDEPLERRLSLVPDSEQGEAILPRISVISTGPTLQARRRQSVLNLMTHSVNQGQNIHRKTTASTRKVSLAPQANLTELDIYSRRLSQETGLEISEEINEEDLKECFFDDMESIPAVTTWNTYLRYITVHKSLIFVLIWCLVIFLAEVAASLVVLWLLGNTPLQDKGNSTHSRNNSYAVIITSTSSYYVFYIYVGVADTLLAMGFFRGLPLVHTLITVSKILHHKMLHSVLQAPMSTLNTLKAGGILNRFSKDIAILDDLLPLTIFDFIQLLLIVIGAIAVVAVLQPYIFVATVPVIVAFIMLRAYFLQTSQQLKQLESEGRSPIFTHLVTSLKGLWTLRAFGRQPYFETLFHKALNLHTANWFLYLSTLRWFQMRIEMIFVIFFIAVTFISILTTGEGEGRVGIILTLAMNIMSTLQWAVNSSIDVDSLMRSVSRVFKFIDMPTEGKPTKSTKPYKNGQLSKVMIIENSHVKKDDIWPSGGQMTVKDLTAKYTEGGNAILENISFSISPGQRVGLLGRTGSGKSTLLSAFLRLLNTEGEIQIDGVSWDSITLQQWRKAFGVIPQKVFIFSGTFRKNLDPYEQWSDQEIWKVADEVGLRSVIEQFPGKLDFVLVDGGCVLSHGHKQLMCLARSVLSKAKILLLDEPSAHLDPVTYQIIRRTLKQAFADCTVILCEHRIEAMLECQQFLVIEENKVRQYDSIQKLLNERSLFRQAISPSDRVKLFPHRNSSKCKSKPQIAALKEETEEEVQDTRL

Row | EC50 [1] [µM] | EC50 [2] [µM] | Maximum % activity (with co-corrector) | Maximum % activity (without co-corrector) | SMILES
1 | 1 to 10 | 1 to 10 | +++ (≥350) | +++ (≥200) | COc1ccc(C(F)(F)F)cc1CO[C@@H]1[C@@H](C(C)(C)C)[C@H](C(=O)O)N(C(=O)[C@@H]2CCC[C@@H](OC)C2)[C@@H]1c1ccccc1 (mixture of isomers) [Example 29, rac-(2R,3S,4R,5R)-3-(tert-butyl)-4-((2-methoxy-5-(trifluoromethyl)benzyl)oxy)-1-((1R,3R)-3-methoxycyclohexanecarbonyl)-5-phenylpyrrolidine-2-carboxylic acid]
2 | 1 to 10 | 1 to 10 | +++ (≥350) | ++ (≥100 and <200) | COc1ccc(C(F)(F)F)cc1COC1[C@@H](c2ccccc2)N(C(=O)C2CCCCC2)[C@@H](C(=O)O)[C@@H]1C(C)(C)C (mixture of isomers) [Example 2, rac-(2R,3S,5R)-3-tert-butyl-1-(cyclohexanecarbonyl)-4-{[2-methoxy-5-(trifluoromethyl)phenyl]methoxy}-5-phenylpyrrolidine-2-carboxylic acid]
3 | 1 to 10 | 1 to 10 | +++ (≥350) | + (<100) | COc1cc(OC)nc(OC2[C@@H](c3ccccc3)N(C(=O)N(C(C)C)C(C)C)[C@@H](C(=O)O)[C@@H]2C(C)(C)C)n1 (mixture of isomers) [Example 6, rac-(2R,3S,5R)-3-tert-butyl-4-[(4,6-dimethoxypyrimidin-2-yl)oxy]-1-[di(propan-2-yl)carbamoyl]-5-phenylpyrrolidine-2-carboxylic acid]
4 | 1 to 10 | 1 to 10 | +++ (≥350) | +++ (≥200) | COc1ncnc(OC)c1CO[C@@H]1[C@@H](C(C)(C)C)[C@H](C(=O)O)N(C(=O)C2CCCCC2)[C@@H]1c1ccccc1 (racemic) [Example 10, rac-(2R,3S,4R,5R)-3-tert-butyl-1-(cyclohexanecarbonyl)-4-[(4,6-dimethoxypyrimidin-5-yl)methoxy]-5-phenylpyrrolidine-2-carboxylic acid]
5 | 1 to 10 | 1 to 10 | +++ (≥350) | ++ (≥100 and <200) | COc1cc(OC)nc(CO[C@@H]2[C@@H](C(C)(C)C)[C@H](C(=O)O)N(C(=O)C3CCCCC3)[C@@H]2c2ccccc2)n1 (racemic) [Example 11, rac-(2R,3S,4R,5R)-3-tert-butyl-1-(cyclohexanecarbonyl)-4-[(4,6-dimethoxypyrimidin-2-yl)methoxy]-5-phenylpyrrolidine-2-carboxylic acid]

Further lines, the molecule ahead of its results:

Row | SMILES | EC50 [1] [µM] | EC50 [2] [µM] | Maximum % activity (with co-corrector) | Maximum % activity (without co-corrector)
6 | CC(C)(C)[C@@H]1C(OCc2cc(Cl)ccc2Cl)[C@@H](c2ccccc2)N(C(=O)CC2CCCC2)[C@H]1C(=O)O (mixture of isomers) [Example 1, rac-(2R,3S,5R)-3-tert-butyl-1-(cyclopentylacetyl)-4-[(2,5-dichlorophenyl)methoxy]-5-phenylpyrrolidine-2-carboxylic acid] | 1 to 10 | 1 to 10 | +++ (≥350) | + (<100)
7 | COc1ccc(Cl)cc1COC1[C@@H](c2ccccc2)N(C(=O)C2CCCCC2)[C@@H](C(=O)O)[C@@H]1C(C)(C)C (mixture of isomers) [Example 3, rac-(2R,3S,5R)-3-tert-butyl-4-[(5-chloro-2-methoxyphenyl)methoxy]-1-(cyclohexanecarbonyl)-5-phenylpyrrolidine-2-carboxylic acid] | 1 to 10 | 1 to 10 | +++ (≥350) | ++ (≥100 and <200)
8 | CC(C)(C)[C@@H]1C(OCc2cc(Cl)ccc2Cl)[C@@H](c2ccccc2)N(C(=O)C2CCCCC2)[C@H]1C(=O)O (mixture of isomers) [Example 4, rac-(2R,3S,5R)-3-tert-butyl-1-(cyclohexanecarbonyl)-4-[(2,5-dichlorophenyl)methoxy]-5-phenylpyrrolidine-2-carboxylic acid] | 1 to 10 | 1 to 10 | +++ (≥350) | ++ (≥100 and <200)
9 | Cc1cc(C(F)(F)F)cc(OC2[C@@H](c3ccccc3)N(C(=O)C3CCCCC3)[C@@H](C(=O)O)[C@@H]2C(C)(C)C)n1 (mixture of isomers) [Example 5, rac-(2R,3S,5R)-3-tert-butyl-1-(cyclohexanecarbonyl)-4-{[6-methyl-4-(trifluoromethyl)pyridin-2-yl]oxy}-5-phenylpyrrolidine-2-carboxylic acid] | 1 to 10 | 1 to 10 | +++ (≥350) | ++ (≥100 and <200)
10 | COc1ccc(C(F)(F)F)cc1COC1[C@@H](c2ccccc2)N(C(=O)N(C(C)C)C(C)C)[C@@H](C(=O)O)[C@@H]1C(C)(C)C (mixture of isomers) [Example 7, rac-(2R,3S,5R)-3-tert-butyl-1-[di(propan-2-yl)carbamoyl]-4-{[2-methoxy-5-(trifluoromethyl)phenyl]methoxy}-5-phenylpyrrolidine-2-carboxylic acid] | > 10 | > 10 | + (<150) | + (<100)
11 | CN(C)c1ncc(C(F)(F)F)cc1CO[C@@H]1[C@@H](C(C)(C)C)[C@H](C(=O)O)N(C(=O)C2CCCCC2)[C@@H]1c1ccccc1 (racemic) [Example 12, rac-(2R,3S,4R,5R)-3-tert-butyl-1-(cyclohexanecarbonyl)-4-{[2-(dimethylamino)-5-(trifluoromethyl)pyridin-3-yl]methoxy}-5-phenylpyrrolidine-2-carboxylic acid] | 1 to 10 | 1 to 10 | +++ (≥350) | ++ (≥100 and <200)
12 | COc1ccc(C(F)(F)F)cc1COC1[C@@H](c2ccccc2OC)N(C(=O)C2CCCCC2)[C@@H](C(=O)O)[C@@H]1C(C)(C)C (mixture of isomers) [Example 13, rac-(2R,3S,5R)-3-tert-butyl-1-(cyclohexanecarbonyl)-5-(2-methoxyphenyl)-4-{[2-methoxy-5-(trifluoromethyl)phenyl]methoxy}pyrrolidine-2-carboxylic acid] | 1 to 10 | 1 to 10 | +++ (≥350) | + (<100)
13 | COc1cc(Cl)ccc1COC1[C@@H](c2ccccc2OC)N(C(=O)C2CCCCC2)[C@@H](C(=O)O)[C@@H]1C(C)(C)C (mixture of isomers) [Example 14, rac-(2R,3S,5R)-3-tert-butyl-4-[(4-chloro-2-methoxyphenyl)methoxy]-1-(cyclohexanecarbonyl)-5-(2-methoxyphenyl)pyrrolidine-2-carboxylic acid] | 1 to 10 | 1 to 10 | +++ (≥350) | ++ (≥100 and <200)

Source: patent US10399940B2, “Substituted pyrrolidines and methods of use” (AbbVie S.à.r.l., priority 2016, dated 2019)
